The test has as its system BDF1 mice, P388 leukemia ip, median survival T/C. The test is described as follows: NCI In Vivo Anticancer Drug Screen. Data for tumor model P388 Leukemia (intraperitoneal) in B6D2F1 (BDF1) mice. Conditions: endpoint: median survival time, higher = longer survival. The essentials:
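Mice carrying the transplantable tumour receive compound or vehicle. Survival is followed in each arm, and the treated measure is divided by the vehicle measure.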

Setting [1] is: dose: 50.0 mg/kg/injection, schedule: Q01DX009 (ip), vehicle: saline with Tween-80.
[2] abbreviates: dose: 50.0 mg/kg/injection, schedule: Q04DX003 (ip), vehicle: saline with Tween-80.
[3] abbreviates: dose: 100.0 mg/kg/injection, schedule: Q04DX003 (ip), vehicle: saline with Tween-80.
The mark [4] stands for this setting: dose: 200.0 mg/kg/injection, schedule: Q04DX003 (ip), vehicle: saline with Tween-80.
The mark [5] stands for this setting: dose: 400.0 mg/kg/injection, schedule: Q04DX003 (ip), vehicle: saline with Tween-80.
Where [6] appears, read: dose: 25.0 mg/kg/injection, schedule: Q04DX003 (ip), vehicle: saline.
Where [7] appears, read: dose: 100.0 mg/kg/injection, schedule: Q04DX003 (ip), vehicle: saline.
The mark [8] stands for this setting: dose: 200.0 mg/kg/injection, schedule: Q04DX003 (ip), vehicle: saline.
Where [9] appears, read: dose: 400.0 mg/kg/injection, schedule: Q04DX003 (ip), vehicle: saline.
Setting [10] is: dose: 100.0 mg/kg/injection, schedule: Q01DX009 (ip), vehicle: saline with Tween-80.

SMILES strings stand for the structures. Where “and” joins values, the source holds several entries; their conditions need not be identical. Equal entries are not always repeated. Inconclusive results and toxic doses are left out.

For `CCCCCCCCCCOP(=S)(N1CC1)N1CC1`, the T/C is, setting by setting: (dose: 12.5 mg/kg/injection, schedule: Q01DX009 (ip), vehicle: saline with Tween-80) 108 % of control; (dose: 13.0 mg/kg/injection, schedule: Q04DX003 (ip), vehicle: saline with Tween-80) 113 % of control; (dose: 20.0 mg/kg/injection, schedule: Q04DX003 (ip), vehicle: saline with Tween-80) 152 % of control; (dose: 25.0 mg/kg/injection, schedule: Q01DX009 (ip), vehicle: saline with Tween-80) 245 % of control; (dose: 33.0 mg/kg/injection, schedule: Q04DX003 (ip), vehicle: saline with Tween-80) 169 % of control; (dose: 44.0 mg/kg/injection, schedule: Q04DX003 (ip), vehicle: saline with Tween-80) 195 % of control. Besides, the T/C is, setting by setting: under setting [1], 183 % of control; under setting [2], 226 % of control; (dose: 67.0 mg/kg/injection, schedule: Q04DX003 (ip), vehicle: saline with Tween-80) 272 % of control; (dose: 75.0 mg/kg/injection, schedule: Q04DX003 (ip), vehicle: saline with Tween-80) 243 % of control; under setting [3], 272 % of control; (dose: 125.0 mg/kg/injection, schedule: Q04DX003 (ip), vehicle: saline with Tween-80) 165 % of control. Besides, the T/C (dose: 150.0 mg/kg/injection, schedule: Q04DX003 (ip), vehicle: saline with Tween-80) was 272 % of control.

As to `CCC1(C)N=C(C)C(C)S1` (centres undefined), the T/C under setting [3] was 100 % of control, the T/C under setting [4] is 100 % of control and the T/C under setting [5] was 109 % of control.

Regarding `C[n+]1ccc(/C=N/O)cc1`, the T/C runs as follows: under setting [6], 105 % of control; (dose: 50.0 mg/kg/injection, schedule: Q04DX003 (ip), vehicle: saline) 103 % of control; under setting [7], 98 % of control; under setting [8], 89 % of control and 100 % of control; under setting [9], 86 % of control.

As to `Cc1cc2cc3c(=O)[nH]c(=O)nc-3n(CC(O)C(O)C(O)COP(=O)(O)O)c2cc1C` (centres undefined), the T/C is 100 % of control (dose: 66.0 mg/kg/injection, schedule: Q01DX009 (ip), vehicle: saline); 95 % of control and 100 % of control (dose: 100.0 mg/kg/injection, schedule: Q01DX009 (ip), vehicle: saline); 100 % of control under setting [7]; 113 % of control under setting [8]; 100 % of control under setting [9].

For the molecule `C=C(CCCCC)C(=O)/C=C/c1ccc(Cl)cc1`, the T/C is, setting by setting: (dose: 100.0 mg/kg/injection, schedule: Q01DX001 (ip), vehicle: Klucel (hydroxypropylcellulose) (HPC)) 109 % of control; (dose: 200.0 mg/kg/injection, schedule: Q01DX001 (ip), vehicle: Klucel (hydroxypropylcellulose) (HPC)) 109 % of control; (dose: 400.0 mg/kg/injection, schedule: Q01DX001 (ip), vehicle: Klucel (hydroxypropylcellulose) (HPC)) 118 % of control.

With `CC1C(N2CCOCC2)CS1(=O)=O` (centres undefined), the T/C by setting is: (dose: 100.0 mg/kg/injection, schedule: Q01DX009 (ip), vehicle: Klucel (hydroxypropylcellulose) (HPC)) 100 % of control; (dose: 200.0 mg/kg/injection, schedule: Q01DX009 (ip), vehicle: Klucel (hydroxypropylcellulose) (HPC)) 115 % of control; (dose: 400.0 mg/kg/injection, schedule: Q01DX009 (ip), vehicle: Klucel (hydroxypropylcellulose) (HPC)) 105 % of control.

For the molecule `Cc1c2oc3c(C)ccc(C(=O)NCCc4ccccn4)c3nc-2c(C(=O)NCCc2ccccn2)c(N)c1=O`, the T/C runs as follows: (dose: 100.0 mg/kg/injection, schedule: Q04DX002 (ip), vehicle: saline with Tween-80) 101 % of control; (dose: 200.0 mg/kg/injection, schedule: Q04DX002 (ip), vehicle: saline with Tween-80) 92 % of control; (dose: 400.0 mg/kg/injection, schedule: Q04DX002 (ip), vehicle: saline with Tween-80) 97 % of control.

For the molecule `CC(=O)N/N=C\C1=CCC=C(Br)S1`, the T/C runs as follows: under setting [1], 90 % of control; under setting [10], 104 % of control.

Consider `Nc1nccc(NC(c2ccccc2)c2ccccc2)c1N`, for which the T/C reads like this: (dose: 3.0 mg/kg/injection, schedule: Q01DX009 (ip), vehicle: DMSO) 95 % of control; (dose: 6.0 mg/kg/injection, schedule: Q01DX009 (ip), vehicle: DMSO) 100 % of control; (dose: 12.0 mg/kg/injection, schedule: Q01DX009 (ip), vehicle: DMSO) 95 % of control; (dose: 12.5 mg/kg/injection, schedule: Q01DX009 (ip), vehicle: DMSO) 103 % of control; (dose: 12.5 mg/kg/injection, schedule: Q04DX003 (ip), vehicle: DMSO) 95 % of control; (dose: 25.0 mg/kg/injection, schedule: Q04DX003 (ip), vehicle: DMSO) 100 % of control. Further, where the note is “dose: 50.0 mg/kg/injection, schedule: Q04DX003 (ip), vehicle: DMSO”, the T/C was 100 % of control.

For `O=C(O)c1cc(Br)c(Br)s1`, the T/C under setting [2] is 91 % of control, the T/C under setting [3] was 100 % of control and the T/C under setting [4] was 112 % of control.

As for `C1CN2CCC1C1(C2)SSC2(CN3CCC2CC3)S1` (centres undefined), the T/C reads like this: (dose: 6.25 mg/kg/injection, schedule: Q04DX003 (ip), vehicle: saline) 100 % of control; (dose: 12.5 mg/kg/injection, schedule: Q04DX003 (ip), vehicle: saline) 105 % of control; under setting [6], 100 % of control.

`O=C(Cc1ccccc1)Cc1ccccc1`: the T/C (dose: 25.0 mg/kg/injection, schedule: Q01DX009 (ip), vehicle: water) is 99 % of control; the T/C (dose: 50.0 mg/kg/injection, schedule: Q01DX009 (ip), vehicle: water) is 99 % of control; the T/C (dose: 100.0 mg/kg/injection, schedule: Q01DX009 (ip), vehicle: water) is 90 % of control; the T/C (dose: 200.0 mg/kg/injection, schedule: Q01DX009 (ip), vehicle: water) is 97 % of control; the T/C (dose: 200.0 mg/kg/injection, schedule: Q04DX003 (ip), vehicle: water) is 97 % of control and 100 % of control; the T/C (dose: 300.0 mg/kg/injection, schedule: Q04DX003 (ip), vehicle: water) was 89 % of control and 97 % of control. Further, the T/C (dose: 400.0 mg/kg/injection, schedule: Q01DX009 (ip), vehicle: water) is 109 % of control; the T/C (dose: 400.0 mg/kg/injection, schedule: Q04DX003 (ip), vehicle: water) was 93 % of control and 100 % of control; the T/C (dose: 500.0 mg/kg/injection, schedule: Q04DX003 (ip), vehicle: water) is 108 % of control; the T/C (dose: 600.0 mg/kg/injection, schedule: Q04DX003 (ip), vehicle: water) was 98 % of control.

On to `COc1cccc2c1C(=O)c1c(O)c3c(c(O)c1C2=O)C[C@@](O)(C(=O)CO)C[C@@H]3OC1CC(N(C)C)C(O)C(C)O1` (some centres undefined), for which the T/C was 170 % of control (dose: 1.44 mg/kg/injection, schedule: Q04DX003 (ip), vehicle: water); 198 % of control (dose: 2.4 mg/kg/injection, schedule: Q04DX003 (ip), vehicle: water); 89 % of control (dose: 4.0 mg/kg/injection, schedule: Q04DX003 (ip), vehicle: water).

For the molecule `S=C(NCCNC(=S)[S][Sn]([c]1ccccc1)([c]1ccccc1)[c]1ccccc1)[S][Sn]([c]1ccccc1)([c]1ccccc1)[c]1ccccc1`, the T/C (dose: 3.3 mg/kg/injection, schedule: Q01DX009 (ip), vehicle: saline with Tween-80) is 100 % of control; the T/C (dose: 5.0 mg/kg/injection, schedule: Q01DX009 (ip), vehicle: saline with Tween-80) is 117 % of control; the T/C (dose: 7.5 mg/kg/injection, schedule: Q01DX009 (ip), vehicle: saline with Tween-80) was 108 % of control; the T/C under setting [1] was 115 % of control.

Take `CC1(C)O[C@@H]2C[C@H]3[C@@H]4CCC5=CC(=O)CC[C@]5(C)[C@@]4(F)[C@@H](O)C[C@]3(C)[C@]2(C(=O)CO)O1`: the T/C reads like this: under setting [3], 108 % of control; under setting [4], 108 % of control; under setting [5], 100 % of control.

Consider `[N-]=[N+]=NC(=O)c1cccs1`, for which the T/C (dose: 50.0 mg/kg/injection, schedule: Q01DX009 (ip), vehicle: saline + alcohol) is 99 % of control.

With `CCCCCOC(=O)c1ccc(OP(=O)(N(C)C)N(C)C)cc1`, the T/C by setting is: under setting [1], 116 % of control; under setting [10], 100 % of control.

In the case of `Cc1cc(C)cc(NC(=O)c2ccccc2N)c1`, the T/C was 95 % of control under setting [10]; 109 % of control under setting [3]; 95 % of control (dose: 200.0 mg/kg/injection, schedule: Q01DX009 (ip), vehicle: saline with Tween-80); 90 % of control under setting [4]; 104 % of control (dose: 400.0 mg/kg/injection, schedule: Q01DX009 (ip), vehicle: saline with Tween-80); 100 % of control under setting [5].

(Values after PubChem BioAssay AID328 (DTP/NCI, 2004).)
